pKd: −log10 of the molar value.
What was measured:
SPD1098 SBD2 (GlnP) = target: T1, SPD1098 SBD2 (GlnP) (Streptococcus pneumoniae, UniProt A0A0H2ZPN9); assay: isothermal titration calorimetry; assay type: binding
T1 construct: gene SPD_1098
T1 sequence (A0A0H2ZPN9 262-488): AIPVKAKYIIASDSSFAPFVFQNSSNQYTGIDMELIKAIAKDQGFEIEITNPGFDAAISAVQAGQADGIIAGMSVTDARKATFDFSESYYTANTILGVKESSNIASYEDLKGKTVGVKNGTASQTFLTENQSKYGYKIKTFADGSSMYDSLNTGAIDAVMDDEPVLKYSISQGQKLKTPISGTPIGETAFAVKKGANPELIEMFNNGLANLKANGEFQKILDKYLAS
Excerpt: isothermal titration calorimetry on SPD1098 SBD2 (GlnP)

SPD1098 SBD1 (GlnP) = target: T2, SPD1098 SBD1 (GlnP) (Streptococcus pneumoniae, UniProt A0A0H2ZPN9); assay: isothermal titration calorimetry; assay type: binding
T2 construct: gene SPD_1098
T2 sequence (A0A0H2ZPN9 24-247): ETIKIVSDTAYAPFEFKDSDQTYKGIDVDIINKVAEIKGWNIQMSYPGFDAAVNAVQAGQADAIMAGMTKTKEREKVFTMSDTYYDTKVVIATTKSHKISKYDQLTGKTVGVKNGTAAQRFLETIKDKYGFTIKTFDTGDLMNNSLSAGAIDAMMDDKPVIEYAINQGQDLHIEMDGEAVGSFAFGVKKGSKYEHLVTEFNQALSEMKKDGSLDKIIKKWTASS
Excerpt: isothermal titration calorimetry on SPD1098 SBD1 (GlnP)

Compound	pKd (SPD1098 SBD2 (GlnP))	pKd (SPD1098 SBD1 (GlnP))
NC(=O)CC[C@H](N)C(=O)O [glutamine]	6.05	–
NC(=O)C[C@H](N)C(=O)O [asparagine]	–	5.96

From paper PMC10286718, “Amino Acid Starvation-Induced Glutamine Accumulation Enhances Pneumococcal Survival” (mSphere, 2023)
